The record followed here is US6080772A, “Thiazole compounds and methods of modulating signal transduction” (Sugen, Inc., priority 1997, dated 2000).

In the first assay the test system is insulin receptor (IR). As to the kind of experiment: Phosphotyrosine enzyme linked immunosorbent assay: pTyr on insulin receptor in NIH3T3 cells over-expressing human IR (H25 cells). Particulars: Table III; at 50 μM.
In the case of `CC(=O)Nc1ccc(-n2nnnc2Sc2ncc([N+](=O)[O-])s2)cc1` [Compound 31, 1-(4-Acetamidophenyl)-5-[(5-nitrothiazol-2-yl)mercapto]tetrazole], the “increase (PTYR)” value stood at 49%.

Still in this assay, the particulars now being: Table III; at 100 μM.
With `Nc1ccc(-n2nnnc2Sc2ncc([N+](=O)[O-])s2)cc1` [Compound 32, 1-(4-Aminophenyl)-5-[(5-nitrothiazol-2-yl)mercapto]tetrazole], the “increase in PTYR” value is listed as 40%.

As to `COc1ccc2nc(Sc3ncc([N+](=O)[O-])s3)[nH]c2c1` [Compound 45, 5-Methoxy-2-[(5-nitrothiazol-2-yl)mercapto]benzimidazole], the “increase in PTYR” value is listed as 46%.

Staying with this assay, now noted: from 15.6 μM to 250 μM.
On to `O=[N+]([O-])c1cnc(Nc2nc(-c3ccc(Cl)cc3)n[nH]2)s1` [Compound 10, 3-(4-chlorophenyl)-5-[(5-nitrothiazol-2-yl)amino]-1,2,4-triazole], for which the “dose dependence of the increase in the pTyr level” value is “dependent on the dose”.

Staying with this assay, now noted: read-out: ACTIVITY EC50.
For orientation: EC50 means the concentration giving half of the maximal effect. Turning to `CCNC(=O)n1c(Sc2ncc([N+](=O)[O-])s2)nc2cc([N+](=O)[O-])ccc21` [Compound 18, 1-Ethylaminocarbonyl-5-nitro-2-[(5-nitrothiazol-2-yl)mercapto]benzimidazole], the EC50 stood at 16 µM.

With `O=[N+]([O-])c1cnc(Sc2nnc(Sc3nnc(SCCCl)s3)s2)s1` [Compound 26, 2-(2-Chloroethylmercapto)-5-[[2-[(5-nitrothiazol-2-yl)mercapto]-1,3,4-thiadiazol-5-yl]mercapto]-1,3,4-thiadiazole], the EC50 worked out at 46 µM.

Still in this assay, the particulars now being: read-out: ACTIVITY EC50; Table III; […].
As to `O=[N+]([O-])c1cnc(Sc2nccn2Cc2ccccc2)s1` [Compound 16, 1-Benzyl-2-[(5-nitrothiazol-2-yl)mercapto]imidazole], the EC50 is 27 µM.

As for `Cc1ccc(S(=O)(=O)n2c(Sc3ncc([N+](=O)[O-])s3)nc3ccccc32)cc1` [Compound 17, 1-Tosyl-2-[(5-nitrothiazol-2-yl)mercapto]benzimidazole], the EC50 is greater than 25 µM.

In the case of `Cc1nc2nc(Sc3ncc([N+](=O)[O-])s3)[nH]c2cc1Br` [Compound 19], the EC50 was greater than 100 µM.

For `O=[N+]([O-])c1cnc(Sc2nc3ncccc3[nH]2)s1` [Compound 20], the EC50 turned out to be 15 µM.

Turning to `O=C(CN(c1ccccc1)c1nnc(Sc2ncc([N+](=O)[O-])s2)s1)Nc1cccc(C(F)(F)F)c1` [Compound 21, 2-[N-Phenyl-N-[3-(trifluoromethyl)phenylaminocarbonylmethyl]amino]-5-[(5-nitrothiazol-2-yl)mercapto]-1,3,4-thiadiazole], the EC50 is greater than 50 µM.

Consider `O=CNc1nnc(Sc2ncc([N+](=O)[O-])s2)s1` [Compound 22, 2-Formamido-5-[(5-nitrothiazol-2-yl)mercapto]-1,3,4-thiadiazole], for which the EC50 came out at 29 µM.

As to `CCCCSc1nnc(Sc2ncc([N+](=O)[O-])s2)s1` [Compound 23, 2-n-Butylmercapto-5-[(5-nitrothiazol-2-yl)mercapto]-1,3,4-thiadiazole], the EC50 is greater than 100 µM.

For `O=C(CSc1nnc(Sc2ncc([N+](=O)[O-])s2)s1)Oc1ccccc1` [Compound 24, 2-[(5-Nitrothiazol-2-yl)mercapto]-5-[(phenoxycarbonyl)methylmercapto]-1,3,4-thiadiazole], the EC50 was greater than 100 µM.

Consider `CCOC(=O)CSc1nnc(Sc2nnc(Sc3ncc([N+](=O)[O-])s3)s2)s1` [Compound 25, 2-[(Ethoxycarbonyl)methylmercapto]-5-[[2-[(5-nitrothiazol-2-yl)mercapto]-1,3,4-thiadiazol-5-yl]mercapto]-1,3,4-thiadiazole], for which the EC50 came out at 48 µM.

As for `O=[N+]([O-])c1cnc(Sc2nnc(Sc3nnc(Sc4cc(O)ccc4O)s3)s2)s1` [Compound 27, 2-(2,5-Dihydroxyphenylmercapto)-5-[[2-[(5-nitrothiazol-2-yl)mercapto]-1,3,4-thiadiazol-5-yl]mercapto]-1,3,4-thiadiazole], the EC50 turned out to be 96 µM.

For the molecule `CCSc1nnc(Sc2ncc([N+](=O)[O-])s2)s1` [Compound 28, 2-Ethylmercapto-5-[(5-nitrothiazol-2-yl)mercapto]-1,3,4-thiadiazole], the EC50 was 35 µM.

For `Nc1ccc(-n2nnnc2Sc2ncc([N+](=O)[O-])s2)cc1` [Compound 29, 1-(4-Aminophenyl)-5-[(5-nitrothiazol-2-yl)mercapto]tetrazole], the EC50 was greater than 100 µM.

Regarding `C=CCn1nnnc1Sc1ncc([N+](=O)[O-])s1` [Compound 30, 1-Allyl-5-[(5-nitrothiazol-2-yl)mercapto]tetrazole], the EC50 stood at 32 µM.

Take `CC(=O)Nc1ccc(-n2nnnc2Sc2ncc([N+](=O)[O-])s2)cc1` [Compound 31, 1-(4-Acetamidophenyl)-5-[(5-nitrothiazol-2-yl)mercapto]tetrazole]: the EC50 was greater than 100 µM.

With `NS(=O)(=O)c1ccc(-n2nnnc2Sc2ncc([N+](=O)[O-])s2)cc1` [Compound 33, 1-(4-Aminosulfonylphenyl)-5-[(5-nitrothiazol-2-yl)mercapto]tetrazole], the EC50 is greater than 100 µM.

Turning to `CCn1nnnc1Sc1ncc([N+](=O)[O-])s1` [Compound 34, 1-Ethyl-5-[(5-nitrothiazol-2-yl)mercapto]tetrazole], the EC50 came out at 33 µM.

With `O=c1[nH]c(Sc2ncc([N+](=O)[O-])s2)nc2ccccc12` [Compound 35, 2-[(5-Nitrothiazol-2-yl)mercapto]-4-quinazolone], the EC50 was greater than 25 µM.

With `Cn1c(=O)n(C)c2nc(Sc3ncc([N+](=O)[O-])s3)ncc21` [Compound 36, 1,3-Dimethyl-5-[(5-nitrothiazol-2-yl)mercapto]imidazo[4,5-d]pyrimid-2-one], the EC50 was greater than 100 µM.

In the case of `O=[N+]([O-])c1cnc(Sc2nc(O)c3nc(O)[nH]c3n2)s1` [Compound 37], the EC50 was greater than 100 µM.

As to `Nc1nnc(Sc2ncc([N+](=O)[O-])s2)s1` [Compound 38, 2-Amino-5-[(5-nitrothiazol-2-yl)mercapto]-1,3,4-thiadiazole], the EC50 amounted to 15.6 µM.

As to `O=[N+]([O-])c1cnc(Sc2nc3c([nH]2)CC(Cl)C(Cl)C3)s1` (stereo not drawn) [Compound 39, 5,6-Dichloro-2-[(5-nitrothiazol-2-yl)mercapto]cyclohexoimidazole], the EC50 stood at 17.5 µM.

With `O=[N+]([O-])c1cnc(Sc2nc3cc(C(F)(F)F)cc(Br)c3[nH]2)s1` [Compound 40, 4-Bromo-2-[(5-nitrothiazol-2-yl)mercapto]-6-(trifluoromethyl)benzimidazole], the EC50 was found to be 8.6 µM.

Regarding `O=[N+]([O-])c1cnc(Sc2nc3cc(C(F)(F)F)cc(Cl)c3[nH]2)s1` [Compound 41, 4-Chloro-2-[(5-nitrothiazol-2-yl)mercapto]-6-(trifluoromethyl)benzimidazole], the EC50 turned out to be 10 µM.

As to `COC(=O)c1cnc(Sc2ncc([N+](=O)[O-])s2)n1C` [Compound 42, 4-Methoxycarbonyl-3-methyl-2-[(5-nitrothiazol-2-yl)mercapto]imidazole], the EC50 stood at 14 µM.

`CCOC(=O)c1c[nH]c(Sc2ncc([N+](=O)[O-])s2)n1` [Compound 43, 4-Ethoxycarbonyl-2-[(5-nitrothiazol-2-yl)mercapto]imidazole]: the EC50 was 8.5 µM.

As to `CCOC(=O)c1cnc(Sc2ncc([N+](=O)[O-])s2)n1C` [Compound 44, 4-Ethoxycarbonyl-3-methyl-2-[(5-nitrothiazol-2-yl)mercapto]imidazole], the EC50 stood at 7.6 µM.

Take `CCOc1ccc(OCC)c2[nH]c(Sc3ncc([N+](=O)[O-])s3)nc12` [Compound 46, 4,7-Diethoxy-2-[(5-nitrothiazol-2-yl)mercapto]benzimidazole]: the EC50 was found to be 9.7 µM.
